Data on 4 compounds can be found in patent US20200270588A1, “GLUCOSYL TRANSFERASE POLYPEPTIDES AND METHODS OF USE” (Syngenta Participations AG, priority 2017, published 2020).

Assay [1] deals with Avena bx glucosyl transferase (SEQ ID NO 8). As to the kind of experiment: UDP-Glo glucosyl transferase assay, purified enzyme. Type of assay: biochemical. To be noted: herbicide 0.500 mM; limit of detection about 0.001. The procedure: Glucosyl transferase activity is assayed via measurement of acceptor substrate-dependent production of UDP from ultrapure UDP-glucose using the Promega UDP-Glo™ method and according to the manufacturer's instructions. Assays are run in 96 well microtiter plates.
Enzyme, typically at a stock concentration of ˜2 mg/ml is diluted to an appropriate concentration in 50 mM K^+ Hepes buffer at pH7.5 containing 0.5 mg/mL bovine serum albumin (BSA) and 5 ul aliquots of this diluted enzyme added to each well of a Perkin Elmer white ½ area 96 well plate. […] Assays are run for an appropriate time (usually 10 to 60 min) so that the amount of UDP formed lies within the most nearly linear part of the UDP standard curve and are stopped with the addition and mixing of 25 ul UDP-Glo™ detection reagent (prepared as described below). Plates are then incubated at room temperature for 60 minutes and then read in a luminescence plate reader (Perkin Elmer Envision 2130 Multilabel Reader). A UDP standard curve is run alongside each set of assays and reagent blank control assays run with DMSO in place of test herbicide. Typically, 300 pmol of UDP corresponds to a Relative Luminescence Unit (RLU) reading of about 1.5E7 and the response curve between 0 and 600 pmol is fitted to a polynomial function (see for example FIG. 2).
The UDP-Glo™ reagents are made up and used according to the manufacturer's instructions. Thus, Nucleotide Detection Buffer and ATP are combined to make nucleotide detection reagent (NDR) dispensed into aliquots and frozen to be freshly thawed before use.
Km and kcat values in respect of UDP-glucose are derived by carrying out experiments to measure initial rates over a suitable range of concentrations of UDP glucose out at a fixed near saturating concentration of acceptor substrate. Best fit values of kcat, Km and kcat/Km are obtained by direct fitting of the data to the Michaelis-Menten equation using Graphpad Prism™ software.
DNA sequences, optimized for E. coli codon usage, corresponding to SEQ IDs 1-15, encoding BX8 and BX9 orthologue polypeptides derived from a range of species (as depicted in FIG. 1) were synthesized by Genewiz (South Plainfield, USA) with 5′ NdeI and 3′ XhoI restriction sites. The various orthologues were synthesized with either a N-terminal 6×His purification tag or C-terminal 6×His purification tag (i.e. tried both ways to achieve best expression of activity) and cloned into the E. coli expression plasmid pET24a (Novagen) via the NdeI and XhoI restriction sites. Expression, purification and assay was as described in Example 1.
Assays were carried out as described in Example 1. Partly purified C-terminally his tagged w/t Larkspur enzyme (SEQ ID No 10 with a 6 amino acid C-terminal tag) catalyzed glucosyl transfer to herbicide V at a rate estimated to be about 0.0065/s/pmol at 1 mM herbicide V. The similarly-tagged w/t bx-like enzymes from rye (SEQ ID No 11) and from wheat (SEQ ID No 4) were also active but only at levels close to the detection limit at ˜0.0015/s/pmol. Further examples of assay results from further experiments are depicted in Table 14. All of the proteins were C-terminally his tagged versions of the sequences referenced except for the Zea mays bx8 SEQ ID NO: 2 which was N-terminally his tagged.

For assay [2], the target named is T1, SEQ ID 31, mutant bx-type glucosyl transferase (Zea mays, UniProt Q8W2B7, S121V).
T1 construct: 31; nd; 8.84E+06; 5.57E+06; His tag; made in house
T1 sequence (Q8W2B7 whole entry S121V): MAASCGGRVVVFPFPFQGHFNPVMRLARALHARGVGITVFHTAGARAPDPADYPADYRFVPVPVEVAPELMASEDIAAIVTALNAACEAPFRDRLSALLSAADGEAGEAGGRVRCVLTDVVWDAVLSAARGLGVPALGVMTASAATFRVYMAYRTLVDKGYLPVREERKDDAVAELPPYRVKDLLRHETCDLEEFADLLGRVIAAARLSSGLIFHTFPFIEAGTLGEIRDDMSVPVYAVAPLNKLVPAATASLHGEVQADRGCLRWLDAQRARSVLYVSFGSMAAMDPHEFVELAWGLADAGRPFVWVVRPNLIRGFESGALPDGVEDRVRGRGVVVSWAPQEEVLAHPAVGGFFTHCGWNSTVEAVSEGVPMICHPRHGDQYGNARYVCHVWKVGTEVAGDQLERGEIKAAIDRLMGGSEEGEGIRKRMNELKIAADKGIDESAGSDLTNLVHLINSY
As to the kind of experiment: LC/MS glucosyl transferase assay (glucoside peak area), purified enzyme. Type of assay: biochemical. The settings on record: about 60 min, ~15 pmol enzyme, relative quantification only. On the procedure: (§1) In an alternative method for assaying the various enzymes, the test glucosyl transferase enzyme is reacted with substrates exactly as above except that the assay is stopped by adding an equal volume of acetonitrile. Alternatively 50 or 100 μl samples from assay reactions are added to 500 μl ethyl acetate to stop the reaction. In this case samples are then vortexed and 400 μl of the ethyl acetate partition removed, dried down, and resuspended in 100 μl 80:20 acetonitrile/water. The formation of product gluco side and/or disappearance of substrate test herbicide is then monitored directly by LC/MS. Samples are analyzed by LC-MS using an Agilent 1290 liquid chromatography system and Thermo Q-Exactive mass spectrometer. The chromatography is achieved on a Waters Acquity C18 BEH (50×2.1 mm) 1.7 μm particle size column, using a 6 minute gradient run of Water (0.2% formic acid) and Acetonitrile. The Q-Exactive is operated in positive ionisation electrospray mode, using Full scan-AIF mode, at 35,000 resolution, between 100-800 m/z. All analytes are identified from the full scan data to within at least 5 ppm accuracy of their predicted pseudo-molecular ion [M+H]^+ m/z value. In order to obtain quantitative data standard curves are run using herbicides and herbicide glucosides synthesized as standards. Where these synthetic glucosides were not available the LC/MS assay could only be used to provide relative data.
(§2) DNA sequences, optimized for E. coli codon usage, were cloned, expressed and the various proteins purified and assayed as described in the foregoing examples. Using the UDP assay (as described in examples 1, 3 and 6) the data obtained from the Zea mays bx8 w/t protein and its variants was noisy due to relatively high background rates in DMSO reagent blanks. The values reported in the table 15 were thus monitored by LC/MS as described in example 1.

Assay [3] relates to SEQ ID 47, mutant bx-type glucosyl transferase. The assay is described as above. Type of assay: biochemical. To be noted: about 60 min, ~15 pmol enzyme, nd = not detectable. The procedure: as §1, §2
Assay [4] concerns the target T2, SEQ ID 33, mutant bx-type glucosyl transferase (Zea mays, UniProt Q8W2B7, A285K).
T2 construct: 33; 1.70E+05; 3.59E+07; 9.27E+06; His tag; made in house
The description is as above. The settings on record: about 60 min, ~15 pmol enzyme, relative quantification only. Type of assay: biochemical. The procedure: as §1, §2

The subject of assay [5] is transgenic tobacco plants expressing SEQ ID NO: 17. As to the kind of experiment: Glass house spray test on tobacco, percent damage. Type of assay: in vivo. To be noted: for tolerance compared with w/t and SEQ ID NO: 1 plants: 200 and 500 g/ha, 14 DAT, several events. An excerpt: Three transgenic populations of about forty tobacco plants and comprising, a glucosyl transferase gene encoding either zmBX8 (SEQ ID NO 2) or zmBX9 (SEQ ID NO 1) were thus produced. A sub-set of about 30 plants were selected on the basis of similar size from each population for spray testing. The plants were then sprayed with 30 g/ha of Compound VI. VI was mixed in water with 0.2-0.25% X-77 surfactant and sprayed from a boom on a suitable track sprayer moving at 2 mph with the nozzle about 2 inches from the plant tops. Spray volume was 200 l/ha. Plants were assessed for damage and scored at 7 and 14 days after treatment (DAT).
In a further example, Zea mays BX8 or BX9 or orthologues of BX8/9, are altered to carry amino acid variants at various positions which increase tolerance to the alcohol and aminal PSII herbicides as described in the example above. DNA sequences that encode these polypeptides (optimized for tobacco or, optionally, codon optimized according to a target crop such as soybean) were prepared for tobacco transformation as described in example 10. […] Transgenic tobacco populations expressing SEQ ID NOs 16 and 17 were generated alongside a population expressing the parental zmBX9 sequence (SEQ ID 1). These populations were sprayed with herbicide V and VI at rates of 200 and 500 g/ha. Plants were assessed for damage and scored at 14 days after treatment (DAT). The results are depicted in Table 19 and also in FIG. 6.

“And” between values parts separate entries of the source, which are not always exact repeats. Equal entries are not always repeated.

T2 sequence (Q8W2B7 whole entry A285K): as the sequence (Q8W2B7 whole entry S121V) above, with V121S, A285K counted along it

Take `Cc1cnc(N2C(=O)N(C)CC2O)cc1C(F)(F)F` (stereo not shown) [XVIII]: the Activity in assay [1] is 0.003 pmol/sec/pmol enzyme.
`CN1CC(O)N(c2cc(C(F)(F)F)c(Cl)cn2)C1=O` (stereo not shown) [XI]: the Activity in assay [1] came out at 0.002 pmol/sec/pmol enzyme.
In the case of `CON1C(=O)N(c2cc(C(F)(F)F)ccn2)C(O)[C@@H]1C` (stereo partly shown) [Compound VI], the “integrated peak area of beta-glucoside product” value in assay [2] was 8.84E+06 and 1.04E+07; in assay [3], 1.68E+05 and 1.05E+05; in assay [4], 3.59E+07 and 3.45E+07. In assay [1], this compound had an Activity of 0.002 pmol/sec/pmol enzyme. The “tolerance” value in assay [5] (1 kg/ha, events 7937, 7940, 7952, 8039, 8071, 8106 expressing SEQ ID NOs 16 and 17, data not shown) is reported as “substantially fully tolerant”. For the same compound, in assay [5], the “tolerance compared with w/t and SEQ ID NO: 1 plants” value is recorded as “much superior tolerance”.
With `CN1CC(O)N(c2cc(C(F)(F)F)ccn2)C1=O` (stereo not shown) [Compound V], the “integrated peak area of beta-glucoside product” value was 5.57E+06 and 5.59E+06 in assay [2]; 8.67E+05 and 6.30E+05 in assay [3]; 9.27E+06 and 9.76E+06 in assay [4]. In assay [1], this compound yielded an Activity of 0.002 pmol/sec/pmol enzyme. Also, the “tolerance compared with w/t and SEQ ID NO: 1 plants” value in assay [5] is reported as “much superior tolerance”.
